These are literature values, as cited in patent US8821921B2, “Vitamin D3 for the transdermal treatment of pain and inflammation” (Anzamed International Limited, priority 2009, dated 2014).

For the data set, the system named is diabetic neuropathic pain. Conditions: daily oral doses, patients with diabetic neuropathy.

On to `C=C1CC[C@H](O)C/C1=C/C=C1\CCC[C@]2(C)[C@@H]([C@H](C)CCCC(C)C)CC[C@@H]12` [vitamin D3, cholecalciferol], for which the diabetic neuropathic pain result is given as “significant reduction”.
